Values quoted from earlier work as cited in patent US20130053277A1 (priority 2010, published 2013).

Target: influenza A virus M2 ion channel, S31N mutant (Influenza A virus, UniProt P0DOF5, S31N)
Settings: cited from earlier work

Compound: NC12CC3CC(CC(C3)C1)C2 [amantadine, Amantadine]
- isochronic apparent inhibitory binding constant: 200 JLM
